Assay results taken from BindingDB's records for doi:10.3109/14756366.2012.715288 (Ankara University, 2013).

What was measured:
[1] = target: Tyrosine-protein kinase Lyn (Homo sapiens, UniProt P07948); assay: In Vitor Src Tyrosine Kinase Activity Assay; conditions: 22 °C
Experimental: (§1) Kinase activity (Src-family kinases, Hck, Lyn, Fyn, and c-Src) and the effect of the molecules were determined by ProFluor Src-Family Kinase Assay Kit (Promega). […] The compounds were dissolved in 10% DMSO and tested at 1, 10 and 100 μM concentrations. Briefly, the molecules were mixed with a reaction buffer that included a specific substrate for Src-family kinases (R110), a control substrate and the kinase. The reaction was initiated by the addition of ATP. After incubating the 96-well reaction plate at 22°C for 1 h, protease solution was added to each well and the plate was incubated for 1 h.

[2] = target: Proto-oncogene tyrosine-protein kinase Src (Homo sapiens, UniProt P12931); assay: In Vitor Src Tyrosine Kinase Activity Assay; conditions: 22 °C
Experimental: as §1

Chain of Proto-oncogene tyrosine-protein kinase Src (P12931 2-536 limits assumed): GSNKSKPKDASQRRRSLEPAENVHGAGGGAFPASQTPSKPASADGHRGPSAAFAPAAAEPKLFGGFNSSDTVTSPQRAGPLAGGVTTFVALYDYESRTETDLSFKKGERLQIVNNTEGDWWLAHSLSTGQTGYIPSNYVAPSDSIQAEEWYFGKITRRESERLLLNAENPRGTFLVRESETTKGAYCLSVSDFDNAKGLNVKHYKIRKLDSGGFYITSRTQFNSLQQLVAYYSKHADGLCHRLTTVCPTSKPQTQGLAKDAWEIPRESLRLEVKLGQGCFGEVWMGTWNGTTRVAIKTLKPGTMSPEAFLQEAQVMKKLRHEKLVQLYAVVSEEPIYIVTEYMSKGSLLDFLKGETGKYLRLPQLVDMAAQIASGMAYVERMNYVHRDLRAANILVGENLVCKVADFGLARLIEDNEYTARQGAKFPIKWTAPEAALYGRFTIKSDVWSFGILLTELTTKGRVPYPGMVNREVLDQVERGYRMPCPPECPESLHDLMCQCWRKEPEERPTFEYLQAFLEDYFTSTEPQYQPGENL
Chain of Tyrosine-protein kinase Lyn (P07948 whole entry): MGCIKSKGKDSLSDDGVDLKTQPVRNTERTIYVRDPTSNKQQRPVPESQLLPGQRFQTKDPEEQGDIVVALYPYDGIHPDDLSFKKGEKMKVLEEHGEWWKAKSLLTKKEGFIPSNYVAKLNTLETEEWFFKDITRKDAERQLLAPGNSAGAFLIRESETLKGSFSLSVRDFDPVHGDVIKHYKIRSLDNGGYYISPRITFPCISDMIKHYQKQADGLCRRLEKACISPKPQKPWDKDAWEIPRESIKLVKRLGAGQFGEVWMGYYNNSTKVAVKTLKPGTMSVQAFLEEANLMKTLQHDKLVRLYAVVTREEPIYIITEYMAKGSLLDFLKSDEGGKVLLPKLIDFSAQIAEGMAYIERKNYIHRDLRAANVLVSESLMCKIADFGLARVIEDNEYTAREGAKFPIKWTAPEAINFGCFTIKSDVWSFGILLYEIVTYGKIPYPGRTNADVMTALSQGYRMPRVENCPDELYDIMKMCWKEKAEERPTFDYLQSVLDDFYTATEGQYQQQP

IC50 [1] [µM]	IC50 [2] [µM]	SMILES
0.0003		CN1CCN(C2CCC(n3cc(-c4ccc(Oc5ccccc5)cc4)c4c(N)ncnc43)CC2)CC1 (centres undefined) [A-419259]
	0.0004	COc1cccc(-c2cn(-c3ccc(CCN4CCC(O)CC4)cc3)c3ncnc(N)c23)c1 [CGP77675]
	21	COc1ccc(CCCC(=O)NCc2c[nH]c3nc(N)[nH]c(=O)c23)cc1OC [N-((2-Amino-4-oxo-4,7-dihydro-3H-pyrrolo[2,3-d]pyrimidin-5-yl)methyl)-4-(3,4-dimethoxyphenyl)butanamide (5)]
	16	Cc1ccc(C(=O)NCc2c[nH]c3nc(N)[nH]c(=O)c23)s1 [N-[(2-Amino-4-oxo-4,7-dihydro-3H-pyrrolo[2,3-d]pyrimidin-5-yl)methyl]-5-methylthiophene-2-carboxamide (7)]
